Key:
HsPRC2_4 [1] = molecular target: T1, HsPRC2_4 (Homo sapiens, UniProt Q15910); assay: Inhibition of basal and activated states of HsPRC2_4; type: biochemical; conditions: for Ki: SAM above Km, mean of two independent experiments
T1 construct: intact HsPRC2_4 (full-length EZH2 (EZH2_FL) and SUZ12 co-migrate on SDS-PAGE); made in house; host or cells: Sf9 insect cells (baculovirus co-infection)

PRC2 = molecular target: PRC2; parameters: method as in PMID 24304166; conditions: activated versus basal PRC2; cited from earlier work
HsPRC2_4 (Y641N/Y661D) = molecular target: T2, HsPRC2_4 (Y641N/Y661D) (Homo sapiens, UniProt Q15910, Y641N/Y661D); assay: Radioactive filter-binding histone methyltransferase assay, HsPRC2_4 (Y641N/Y661D), oligonucleosome substrate; type: biochemical
T2 construct: intact HsPRC2_4 (full-length EZH2 (EZH2_FL) and SUZ12 co-migrate on SDS-PAGE); made in house; host or cells: Sf9 insect cells (baculovirus co-infection)
T2 sequence (Q15910 whole entry Y641N/Y661D): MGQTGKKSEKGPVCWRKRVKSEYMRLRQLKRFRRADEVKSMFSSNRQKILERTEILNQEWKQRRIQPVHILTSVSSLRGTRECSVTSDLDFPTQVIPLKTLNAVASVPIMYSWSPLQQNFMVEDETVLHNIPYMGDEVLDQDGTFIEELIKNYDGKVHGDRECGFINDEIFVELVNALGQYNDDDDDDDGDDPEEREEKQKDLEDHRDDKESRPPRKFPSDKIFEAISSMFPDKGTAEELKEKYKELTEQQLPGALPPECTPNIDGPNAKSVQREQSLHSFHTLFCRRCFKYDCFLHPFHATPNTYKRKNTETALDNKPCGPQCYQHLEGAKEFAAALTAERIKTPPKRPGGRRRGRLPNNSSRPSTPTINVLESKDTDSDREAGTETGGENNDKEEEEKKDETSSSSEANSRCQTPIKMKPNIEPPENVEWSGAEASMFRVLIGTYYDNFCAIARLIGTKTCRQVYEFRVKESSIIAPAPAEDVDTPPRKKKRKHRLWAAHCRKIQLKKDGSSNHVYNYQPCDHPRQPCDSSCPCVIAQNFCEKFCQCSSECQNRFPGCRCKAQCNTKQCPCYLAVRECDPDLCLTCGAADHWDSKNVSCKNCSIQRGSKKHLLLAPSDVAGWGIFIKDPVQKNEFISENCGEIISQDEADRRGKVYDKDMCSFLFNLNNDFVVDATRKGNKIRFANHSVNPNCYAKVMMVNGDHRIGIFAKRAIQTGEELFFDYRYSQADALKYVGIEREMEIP
T2 sequence (O75530 whole entry partner): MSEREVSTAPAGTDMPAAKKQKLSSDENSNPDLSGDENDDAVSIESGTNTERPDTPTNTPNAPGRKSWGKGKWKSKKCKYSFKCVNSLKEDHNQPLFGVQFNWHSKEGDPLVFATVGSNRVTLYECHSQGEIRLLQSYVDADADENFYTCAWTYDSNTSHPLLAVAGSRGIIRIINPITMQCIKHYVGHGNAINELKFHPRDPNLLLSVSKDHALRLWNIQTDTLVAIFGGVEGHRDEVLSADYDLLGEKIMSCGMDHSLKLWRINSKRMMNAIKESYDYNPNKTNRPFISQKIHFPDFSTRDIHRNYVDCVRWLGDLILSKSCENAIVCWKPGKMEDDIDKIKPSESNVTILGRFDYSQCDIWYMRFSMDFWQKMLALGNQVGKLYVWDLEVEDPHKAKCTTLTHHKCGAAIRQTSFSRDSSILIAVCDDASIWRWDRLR
T2 sequence (Q15022 whole entry partner): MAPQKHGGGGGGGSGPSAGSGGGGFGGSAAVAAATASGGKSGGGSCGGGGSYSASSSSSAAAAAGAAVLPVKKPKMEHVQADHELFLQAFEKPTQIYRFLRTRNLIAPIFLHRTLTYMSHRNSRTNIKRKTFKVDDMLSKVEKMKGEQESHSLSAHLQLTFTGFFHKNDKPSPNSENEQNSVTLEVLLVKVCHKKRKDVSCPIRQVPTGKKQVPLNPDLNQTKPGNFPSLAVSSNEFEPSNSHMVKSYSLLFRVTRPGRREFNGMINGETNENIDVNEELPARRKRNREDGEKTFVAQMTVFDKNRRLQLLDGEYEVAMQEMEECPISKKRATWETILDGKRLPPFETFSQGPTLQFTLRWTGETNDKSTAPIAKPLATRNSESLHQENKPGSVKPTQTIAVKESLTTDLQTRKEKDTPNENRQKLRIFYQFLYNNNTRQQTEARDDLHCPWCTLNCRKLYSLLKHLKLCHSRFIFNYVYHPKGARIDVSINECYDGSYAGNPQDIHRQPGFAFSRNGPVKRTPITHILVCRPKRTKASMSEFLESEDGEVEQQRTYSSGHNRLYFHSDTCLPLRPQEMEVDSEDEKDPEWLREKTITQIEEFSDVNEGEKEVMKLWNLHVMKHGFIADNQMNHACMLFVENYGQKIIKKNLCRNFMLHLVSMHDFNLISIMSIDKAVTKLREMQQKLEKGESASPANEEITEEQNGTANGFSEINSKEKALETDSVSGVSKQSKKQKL
T2 sequence (Q09028 whole entry partner): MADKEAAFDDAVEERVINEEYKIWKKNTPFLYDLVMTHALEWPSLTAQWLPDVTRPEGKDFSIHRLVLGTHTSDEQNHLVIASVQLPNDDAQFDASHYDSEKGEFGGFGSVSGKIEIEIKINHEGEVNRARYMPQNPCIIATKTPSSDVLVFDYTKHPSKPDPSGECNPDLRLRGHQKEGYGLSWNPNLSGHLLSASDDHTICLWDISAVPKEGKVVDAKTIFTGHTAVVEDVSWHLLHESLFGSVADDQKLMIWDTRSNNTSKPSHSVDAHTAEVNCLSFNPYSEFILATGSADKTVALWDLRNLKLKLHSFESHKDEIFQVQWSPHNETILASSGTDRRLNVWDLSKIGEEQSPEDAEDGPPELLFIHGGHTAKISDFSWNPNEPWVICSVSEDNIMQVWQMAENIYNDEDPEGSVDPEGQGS
Text: (§1) (Prism, Graphpad Software Inc.).

HsPRC2_4 (Y111L) = molecular target: T3, HsPRC2_4 (Y111L) (Homo sapiens, UniProt Q15910, Y111L); assay: Radioactive filter-binding histone methyltransferase assay, HsPRC2_4 (Y111L), oligonucleosome substrate; type: biochemical
T3 construct: intact HsPRC2_4 (full-length EZH2 (EZH2_FL) and SUZ12 co-migrate on SDS-PAGE); made in house; host or cells: Sf9 insect cells (baculovirus co-infection)
T3 sequence (Q15910 whole entry Y111L): as the sequence (Q15910 whole entry Y641N/Y661D) above, with Y111L, N641Y, D661Y counted along it
T3 sequence (O75530 whole entry partner): as the sequence (O75530 whole entry partner) above
T3 sequence (Q15022 whole entry partner): as the sequence (Q15022 whole entry partner) above
T3 sequence (Q09028 whole entry partner): as the sequence (Q09028 whole entry partner) above
Text: as §1

HsPRC2_4 (Y641N) = molecular target: T4, HsPRC2_4 (Y641N) (Homo sapiens, UniProt Q15910, Y641N); assay: Radioactive filter-binding histone methyltransferase assay, HsPRC2_4 (Y641N), oligonucleosome substrate; type: biochemical
T4 construct: intact HsPRC2_4 (full-length EZH2 (EZH2_FL) and SUZ12 co-migrate on SDS-PAGE); made in house; host or cells: Sf9 insect cells (baculovirus co-infection)
T4 sequence (Q15910 whole entry Y641N): as the sequence (Q15910 whole entry Y641N/Y661D) above, with D661Y counted along it
T4 sequence (O75530 whole entry partner): as the sequence (O75530 whole entry partner) above
T4 sequence (Q15022 whole entry partner): as the sequence (Q15022 whole entry partner) above
T4 sequence (Q09028 whole entry partner): as the sequence (Q09028 whole entry partner) above
Text: as §1

Hs/AcPRC2_X = Hs/AcPRC2_X (Anolis carolinensis, UniProt G1KPH4, DEL368-454, form not given); conditions: rH3 substrate; n=2, mean±s.d.
Hs/AcPRC2_X, sequence (G1KPH4 entry or part of it DEL368-454, form open): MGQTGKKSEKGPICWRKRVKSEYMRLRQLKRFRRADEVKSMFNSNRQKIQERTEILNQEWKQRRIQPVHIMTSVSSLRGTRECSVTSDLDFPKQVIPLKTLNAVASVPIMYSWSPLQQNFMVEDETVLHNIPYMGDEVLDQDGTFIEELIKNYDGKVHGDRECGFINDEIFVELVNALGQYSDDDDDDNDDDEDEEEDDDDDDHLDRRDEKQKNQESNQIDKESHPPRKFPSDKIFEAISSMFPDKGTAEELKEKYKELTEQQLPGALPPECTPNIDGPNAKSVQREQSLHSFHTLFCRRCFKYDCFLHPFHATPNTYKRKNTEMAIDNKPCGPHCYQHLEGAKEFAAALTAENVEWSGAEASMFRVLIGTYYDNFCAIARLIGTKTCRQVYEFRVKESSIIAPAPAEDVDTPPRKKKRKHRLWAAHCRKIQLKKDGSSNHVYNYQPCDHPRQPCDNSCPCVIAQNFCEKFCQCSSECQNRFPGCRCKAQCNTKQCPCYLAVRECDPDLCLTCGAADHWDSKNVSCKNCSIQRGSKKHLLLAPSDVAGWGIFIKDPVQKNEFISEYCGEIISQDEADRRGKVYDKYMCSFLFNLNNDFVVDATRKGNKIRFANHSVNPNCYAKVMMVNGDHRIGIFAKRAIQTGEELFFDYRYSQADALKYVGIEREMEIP
Hs/AcPRC2_X, sequence (Q15022 545-726 S583D, form open, further chain): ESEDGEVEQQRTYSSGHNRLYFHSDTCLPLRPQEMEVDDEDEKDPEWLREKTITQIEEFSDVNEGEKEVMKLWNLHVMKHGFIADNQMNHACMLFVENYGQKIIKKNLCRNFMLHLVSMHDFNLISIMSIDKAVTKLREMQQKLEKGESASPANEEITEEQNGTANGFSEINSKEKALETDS
Hs/AcPRC2_X, sequence (O75530 81-441, stated change not applied, form open, further chain): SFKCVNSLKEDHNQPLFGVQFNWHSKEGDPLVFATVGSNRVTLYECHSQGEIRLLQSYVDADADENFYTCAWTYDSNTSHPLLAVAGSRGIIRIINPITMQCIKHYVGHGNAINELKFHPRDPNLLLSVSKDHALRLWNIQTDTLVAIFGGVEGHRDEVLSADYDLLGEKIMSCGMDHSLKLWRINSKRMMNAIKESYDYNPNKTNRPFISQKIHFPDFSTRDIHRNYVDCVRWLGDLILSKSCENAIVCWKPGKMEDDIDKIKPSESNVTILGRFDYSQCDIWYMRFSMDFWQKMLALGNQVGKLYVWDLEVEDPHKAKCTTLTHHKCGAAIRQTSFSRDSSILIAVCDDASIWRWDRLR

HsPRC2_4 [2] = molecular target: T1, HsPRC2_4; assay: Radioactive filter-binding histone methyltransferase assay, intact HsPRC2_4, oligonucleosome substrate; type: biochemical
Text: as §1

[3] = oligonucleosome substrate, n=2, mean±s.d.

T1 sequence (Q15910 whole entry): as the sequence (Q15910 whole entry Y641N/Y661D) above, with N641Y, D661Y counted along it
T1 sequence (O75530 whole entry partner): as the sequence (O75530 whole entry partner) above
T1 sequence (Q15022 whole entry partner): as the sequence (Q15022 whole entry partner) above
T1 sequence (Q09028 whole entry partner): as the sequence (Q09028 whole entry partner) above

With `C[S+](CC[C@H](N)C(=O)[O-])C[C@H]1O[C@@H](n2cnc3c(N)ncnc32)[C@H](O)[C@@H]1O` (stereo partly drawn) [SAM, S-adenosyl-L-methionine, reference compound] the Km (HsPRC2_4 [1]; intact HsPRC2_4 complex, read-out: Km, SAM) was 1.5 µM.

In the case of `CC[C@H](C)n1cc(C)c2c(C(=O)NCc3c(C)cc(C)[nH]c3=O)cc(-c3ccc(N4CCNCC4)nc3)cc21` [GSK126], the “Ki on activation of PRC2 by H3K27Me3 mark” value (PRC2) is given as “lower” and the “Residence time on activation of PRC2 by H3K27Me3 mark” value (PRC2) is given as “increased”.

With `CCc1cc(C)[nH]c(=O)c1CN1CCc2c(Cl)cc(OC3CCN(C(=O)C(C)O)CC3)c(Cl)c2C1=O` (stereo not drawn) [inhibitor 1] the Biochemical inhibition (HsPRC2_4 (Y641N/Y661D); Y641N/Y661D HsPRC2_4) was “refractory”, the Ki (HsPRC2_4 (Y641N/Y661D); [3]) was 204 ± 16 nM and the Biochemical inhibition (HsPRC2_4 (Y111L); Y111L HsPRC2_4) was “refractory”. For the same compound, the Ki (HsPRC2_4 (Y111L); [3]) was 116.4 ± 0.7 nM, the Sensitivity to inhibitor (HsPRC2_4 (Y641N); Y641N HsPRC2_4) was “sensitive” and the Ki (HsPRC2_4 (Y641N); [3]) was 4.56 ± 0.16 nM. The Ki (Hs/AcPRC2_X) was 3.1 ± 0.11 nM, the “Inhibition profile, basal versus stimulated state” value (HsPRC2_4 [1]; basal and stimulated states of HsPRC2_4) was “almost identical” and the Ki (HsPRC2_4 [1]; in the presence of the activator peptide H3K27Me3 (21-44)) was 0.65 nM. For the same compound, the Ki (HsPRC2_4 [1]; no activator) was 0.89 nM, the “Mode of inhibition (IC50 as a function of (SAM)/Km)” value (HsPRC2_4 [2]; HsPRC2_4, linear relationship of IC50 with (SAM)/Km, two independent experiments) was “SAM-competitive” and the Ki (HsPRC2_4 [2]; [3]) was 1.63 ± 0.13 nM.

From publication PMC4853478 (Nature Communications, 2016)
